Assay [1] has as its system SARS-CoV-2 pseudovirus (BacMam) entry into ACE2 expressing host cells (HEK293T). Briefly: microbe, parasite or virus in culture. Format: cell-based, SARS-CoV-2 pseudovirus / human cells. As to conditions: Severe acute respiratory syndrome-related coronavirus, HEK-293T, read-out: IC50, inhibition of pseudovirus entry (BacMam).
The target in a further assay is SARS-CoV-S1S2-hACE2 PPI (Severe acute respiratory syndrome coronavirus, UniProt P59594). Briefly: biochemical. It counts as binding, SARS-CoV / human.
For the next assay, the target named is SARS-CoV-2-RBD-hACE2 PPI (Severe acute respiratory syndrome coronavirus 2, UniProt P0DTC2). Briefly: biochemical. It counts as binding, SARS-CoV-2 / human.
Setting [2] is: read-out: IC50, SARS-CoV S-hACE2 assay.
Where [3] appears, read: read-out: IC50, SARS-CoV-2 S-ACE2 assay.

Where two headings read alike, the source gives them in different places.

On to `Nc1c(/N=N/c2ccc(-c3ccc(/N=N/c4cc(S(=O)(=O)O)c5ccccc5c4N)cc3)cc2)cc(S(=O)(=O)O)c2ccccc12` [Congo red], for which the values for the IC50 (in assay [1]; on SARS-CoV-S1S2-hACE2 PPI (setting [2])) were 20 µM and 3.9 µM, respectively. As to `Nc1ccc2cc(S(=O)(=O)O)cc(O)c2c1N=Nc1ccc(-c2ccc(N=Nc3c(N)ccc4cc(S(=O)(=O)O)cc(O)c34)cc2)cc1` [direct violet 1], the IC50 on SARS-CoV-S1S2-hACE2 PPI (setting [2]) worked out at 2.6 µM. On to `CCOc1ccc(N=Nc2ccc(-c3ccc(N=Nc4c(O)ccc5cc(S(=O)(=O)O)cc(S(=O)(=O)O)c45)c(C)c3)cc2C)cc1` [calcomine scarlet 3B], for which the IC50 on SARS-CoV-2-RBD-hACE2 PPI (setting [3]) turned out to be 4.25 µM; at SARS-CoV-S1S2-hACE2 PPI (setting [2]), 9.9 µM.

On to `Nc1ccc(N=Nc2ccc(-c3ccc(N=Nc4c(S(=O)(=O)O)cc5cc(S(=O)(=O)O)c(N=Nc6ccccc6)c(O)c5c4N)cc3)cc2)c(N)c1` [chlorazol black], for which, at SARS-CoV-2-RBD-hACE2 PPI (setting [3]), the IC50 is 2.57 µM.

For `Cc1cc(-c2ccc(/N=N/c3ccc4c(S(=O)(=O)O)cc(S(=O)(=O)O)c(N)c4c3O)c(C)c2)ccc1/N=N/c1ccc2c(S(=O)(=O)O)cc(S(=O)(=O)O)c(N)c2c1O` [Evans blue], the IC50 at SARS-CoV-S1S2-hACE2 PPI (setting [2]) came out at 1.3 µM. `O=C(Nc1ccc(-c2ccc(C(=O)Nc3cccc4cc(S(=O)(=O)O)ccc34)cc2)cc1)c1ccc([N+](=O)[O-])cc1` [Compound A2, 5-(4′-(4-Nitrobenzamido)biphenyl-4-ylcarboxamido)naphthalene-2-sulfonic acid]: the figures for the IC50 (in assay [1]; against SARS-CoV-S1S2-hACE2 PPI) were 5.6 µM and 3.4 µM, respectively. Regarding `O=C(Nc1ccc2cc(S(=O)(=O)O)cc(O)c2c1)c1ccc(-c2ccc(C(=O)Nc3ccc4cc(S(=O)(=O)O)cc(O)c4c3)cc2)cc1` [Compound A5], the IC50 against SARS-CoV-2-RBD-hACE2 PPI (IC50, SARS-CoV-2 S-ACE2 assay) worked out at 0.16 µM; at SARS-CoV-S1S2-hACE2 PPI, 0.24 µM.
